Source: the NIST ThermoML archive (doi:10.1016/j.jct.2008.06.011)
Several values for one entry are separate records, joined by “and”; a condition that tells them apart may be missing. Identical values can stand only once.

Conditions: Crystal, Calculated from knudsen effusion weight loss

NNC(=O)c1ccco1 [2-furoic acid hydrazide]
Conditions | vapor or sublimation pressure
309.15 K | 0.0001487 kPa and 0.0001459 kPa and 0.0001436 kPa
311.15 K | 0.0001928 kPa and 0.0001919 kPa and 0.0001872 kPa
313.14 K | 0.0002436 kPa and 0.0002335 kPa and 0.0002348 kPa
315.14 K | 0.0003144 kPa and 0.0003082 kPa and 0.0003114 kPa
317.13 K | 0.0003943 kPa and 0.0003803 kPa and 0.0003744 kPa
319.15 K | 0.0005068 kPa and 0.0004916 kPa and 0.0004795 kPa
321.14 K | 0.0006091 kPa and 0.0006111 kPa and 0.0005851 kPa
323.16 K | 0.0007862 kPa and 0.0007814 kPa and 0.0007812 kPa
325.15 K | 0.0009687 kPa and 0.0009579 kPa and 0.0009504 kPa

NNC(=O)c1cccs1 [2-thiophenecarboxylic acid hydrazide]
Conditions | vapor or sublimation pressure
339.13 K | 0.000108 kPa and 0.000109 kPa
341.18 K | 0.000134 kPa and 0.000135 kPa
343.2 K | 0.000171 kPa and 0.000169 kPa and 0.000164 kPa
345.13 K | 0.000218 kPa and 0.000213 kPa and 0.000219 kPa
347.18 K | 0.000273 kPa and 0.000274 kPa and 0.000262 kPa
349.19 K | 0.00033 kPa and 0.00034 kPa and 0.000323 kPa
351.13 K | 0.000414 kPa and 0.000423 kPa and 0.000404 kPa
353.18 K | 0.000519 kPa and 0.00052 kPa and 0.000497 kPa
355.19 K | 0.000637 kPa and 0.000628 kPa and 0.000622 kPa
357.12 K | 0.000786 kPa and 0.000787 kPa and 0.000763 kPa
359.15 K | 0.000977 kPa and 0.000971 kPa and 0.000942 kPa
361.18 K | 0.001194 kPa and 0.001173 kPa and 0.001154 kPa
